In PMC9862800, “Pharmaceutical Systems as a Strategy to Enhance the Stability of Oxytetracycline Hydrochloride Polymorphs in Solution” (Pharmaceutics, 2023):
Counter-ions that a name gives are not always drawn.

Experiments:
[1] = Apparent binding constant by UV-vis spectroscopy, Scott's plot, ligand β-CD; format: physicochemical; details: aqueous solution; absorption at 355 nm; Scott's equation, 1:1 stoichiometry; OxyCl 0.068 mM, ligand 0.068 to 10 mM
Experimental: (§1) UV-vis data were used to calculate the association or binding constants (Ka) of OxyCl polymorphs with each ligand in an aqueous solution by different treatment analyses. The concentration of OxyCl was kept constant (0.068 mM), while the concentration of ligands increased from 0.068 to 10 mM.
(§2) Ka values were determined by applying the formula of Benesi–Hildebrandt, adjusted by Scott utilized for a complex of 1:1 stoichiometry:(1) [L]/ΔAobs=[L]/ΔAc+1/Ka×ΔAc where [L] is the molar concentration of the ligand, ∆Aobs is the variation in the absorbance observed for the OxyCl solid form for a given [L], ΔAc is the variation in the absorbance between the complex and the free solid form.
(§3) The association constant (Ka) for the formation of binary systems was estimated from changes in the intensity of the absorption at 355 nm with increasing ligand concentration using double reciprocal plots of Scott´s equation. […] However, deviations in straight lines were detected for the binary systems with NAC, which determined it was impossible to calculate an association constant assuming this model. To determine the Ka for OxyCl:NAC systems, a model matrix that applied least-squares techniques for the linear transformation of the data was used.

[2] = Apparent binding constant by UV-vis spectroscopy, Scott's plot, ligand HIS; format: physicochemical; details: aqueous solution; absorption at 355 nm; Scott's equation, 1:1 stoichiometry; OxyCl 0.068 mM, ligand 0.068 to 10 mM
Experimental: as §1, §2, §3

[3] = Apparent binding constant by UV-vis spectroscopy, Scott's plot, ligand ASP; format: physicochemical; details: aqueous solution; absorption at 355 nm; Scott's equation, 1:1 stoichiometry; OxyCl 0.068 mM, ligand 0.068 to 10 mM
Experimental: as §1, §2, §3

[4] = Chemical stability (degradation kinetics) in aqueous solution by HPLC; format: physicochemical; details: 25.0 ± 0.1 °C; for k0, intrinsic rate constant of degradation of the free polymorph: light protection, 30 µg/mL
Experimental: (§4) The kinetics of degradation of OxyCl polymorphs both in the presence and absence of ligands were investigated in the aqueous solutions and PBS.
(§5) Stock solutions of each solid form, as well as each ligand β-CD, ASP, and NAC, were prepared. These stock solutions were diluted to a final concentration of 30 µg/mL in water and PBS solutions to prepare the test solutions. The solutions containing ligands were prepared in the molar ratio of 1:1. These solutions were stored with light protection in order to diminish any photolytic effects in a water bath at a constant temperature of 25.0 ± 0.1 °C. Samples were withdrawn at appropriate time intervals and immediately analyzed by HPLC. The observed pseudo first-order rate constants (kobs) for the OxyCl polymorphs degradation were obtained from a linear regression analysis of the natural logarithm of the remaining solid forms plotted against time.
(§6) An HPLC-UV procedure under isocratic conditions was optimized. The results were expressed as the mean of the three determinations of samples prepared in duplicate. The HPLC system was an Agilent 1100 (Agilent Technologies, Waldbronn, Germany) equipped with a column Gemini C18 250 mm × 4.6 mm i.d. filled with 5 μm particles and a precolumn (guard cartridge SecurityGuard C18 4 mm × 3.0 mm i.d.) supplied by Phenomenex (Phenomenex Inc., Torrance, CA, USA). To avoid interference from degradation products, the UV detection was performed at a wavelength of 355 nm. The mobile phase was acetonitrile-water adjusted to a pH of 3 with phosphoric acid (20:80, v/v), and a flow rate of 1 mL/min was used. The column temperature was 25 °C and the injection volume was 50 µL.
It is important to mention that the results presented in these studies represent the first report about OxyCl polymorphs stability. The degradation curves of each OxyCl polymorph and its binary systems with β-CD, NAC, and ASP in an aqueous solution, under identical experimental conditions, were compared. […] The kinetic parameters, which are important in the pharmaceutical sector, were determined using a first-order reaction model that could be expressed by the following equation:ln Ct = […] − k t(8) where Ct and C0 were the concentrations of OxyCl at different reaction times and at the initial time, respectively, k was the degradation rate constant, and t was time. As a result, the slope of the fitted lines could be used to determine k.
(§7) Furthermore, linear regression analysis was used to estimate the intrinsic rate constant of degradation of the free OxyCl polymorphs (k0), the observed rate constant of OxyCl polymorphs in the presence of ligands (kobs), the half-life (t50), and the time of 10% degradation of the drug (t90).

[5] = Chemical stability (degradation kinetics) in PBS by HPLC; format: physicochemical; details: 25.0 ± 0.1 °C; for k0, intrinsic rate constant of degradation of the free polymorph: PBS (pH 7.4), light protection, 30 µg/mL
Experimental: as §4, §5, §6, §7
The degradation plots were linear, indicating apparent first-order kinetics. […] It was observed that OxyCl-I degraded at a faster rate than OxyCl-II and OxyCl-III, with a degradation rate of OxyCl-II < OxyCl-III < OxyCl-I.

[6] = Apparent binding constant by UV-vis spectroscopy, least-squares model matrix, ligand NAC; format: physicochemical; details: aqueous solution; absorption at 355 nm; model matrix with least-squares linear transformation; OxyCl 0.068 mM, ligand 0.068 to 10 mM
Experimental: as §1
Another model for measuring binding constants in data analysis utilizes least-squares analysis. The general approach is to use the linear regression method with a model matrix to find the binding association constant and then apply least-squares procedures to a linear transformation. The normal equations can be written in matrix form as:(2) M×P=Q where (3) M=[n∑x∑x∑x^2] (4) P=[a/b] (5) Q=[∑y/∑xy] then:(6) Ka=a/b
as §3

[7] = parameters: method as in doi:10.1016/j.molliq.2017.12.006; details: incorporated into β-CD cavity; hydrolytic degradation; cited from earlier work

| Compound | Apparent binding constants Ka, ligand β-CD [1] | Apparent binding constants Ka, ligand HIS [2] | Apparent binding constants Ka, ligand ASP [3] | t50, half-life [4] | t90, time of 10% degradation of the drug [4] | k0, intrinsic rate constant of degradation of the free polymorph [4] | k0, intrinsic rate constant of degradation of the free polymorph [5] | t50, half-life ([5]; PBS) | t90, time of 10% degradation of the drug ([5]; PBS) | Apparent binding constants Ka, ligand NAC [6] | half-life at 30 µg/mL ([5]; PBS, pH 7.4, PBS, read-out: t50, half-life (converted)) | increase of half-life in aqueous solutions by β-CD [7] | half-life at 30 µg/mL ([4]; pH 4, aqueous solution, read-out: t50, half-life (converted)) |
| --- | --- | --- | --- | --- | --- | --- | --- | --- | --- | --- | --- | --- | --- |
| CN(C)[C@@H]1C(O)=C(C(N)=O)C(=O)[C@@]2(O)C(O)=C3C(=O)c4c(O)cccc4[C@@](C)(O)[C@H]3[C@H](O)[C@@H]12 [OxyCl-II, Oxytetracycline hydrochloride] | 15,425 M^−1 | 323 M⁻¹ | 3063 M⁻¹ | 57 h | 9 h | 0.0121 h⁻¹ | 0.005 h⁻¹ | 139 h | 21 h | 4582 M⁻¹ |  |  |  |
| CN(C)[C@@H]1C(O)=C(C(N)=O)C(=O)[C@@]2(O)C(O)=C3C(=O)c4c(O)cccc4[C@@](C)(O)[C@H]3[C@H](O)[C@@H]12 [OxyCl-I, Oxytetracycline hydrochloride] | 3761 M⁻¹ | 224 M⁻¹ | 34,645 M^−1 | 68 h | 10 h | 0.0102 h⁻¹ | 0.009 h⁻¹ |  | 12 h | 2042 M⁻¹ | 81 h |  |  |
| NS(=O)(=O)c1cc2c(cc1Cl)NCNS2(=O)=O [hydrochlorothiazide] |  |  |  |  |  |  |  |  |  |  |  | ~28 fold |  |
| CN(C)[C@@H]1C(O)=C(C(N)=O)C(=O)[C@@]2(O)C(O)=C3C(=O)c4c(O)cccc4[C@@](C)(O)[C@H]3[C@H](O)[C@@H]12 [OxyCl-III, Oxytetracycline hydrochloride] | 3607 M⁻¹ | 8247 M⁻¹ | 1771 M⁻¹ |  | 9 h | 0.0116 h⁻¹ | 0.007 h⁻¹ | 102 h | 15 h | 3897 M⁻¹ |  |  | 60 h |
